From paper PMC5838106, “Cathelicidin promotes inflammation by enabling binding of self-RNA to cell surface scavenger receptors” (Scientific Reports, 2018)
Where no end group is shown, it is not given here.

Test system: Group A streptococcus (GAS)
Assay type: cell-based
Experimental: Figure 1 Inflammatory activity of cathelicidin can be dissociated from antimicrobial function (a) Transcriptomic analysis by RNASeq of primary cultures of normal human epidermal keratinocytes (NHEKs) treated with LL37 (2.5 μM) with or without U1 RNA (2.5 μg/mL) for 24 hours. Shown are gene sets induced > 2 fold over vehicle, and after treatment with LL37, U1 RNA, or the combination of LL37 + U1 RNA. (b) Gene Ontology analysis of gene sets from (a). The number of genes related to each biological process is indicated in parentheses. (c) Amino acid sequence of synthetic cathelicidin peptides used in this study. (d) Antimicrobial assay of cathelicidin peptides against group A streptococcus (GAS). GAS were incubated with various concentrations of each peptide (0–25 μM) for 6 hours, then surviving colonies counted after plating on Todd Hewitt Broth gel. (e) IFN-β1 mRNA abundance and (f) IL-6 mRNA abundance in NHEKs after treatment with cathelicidin peptides (2.5 μM) for 10 minutes, then stimulated with U1 RNA (2.5 μg/mL) for a further 6 hours. (n = 3). (g) IFN-β1 mRNA abundance and (h) IL-6 mRNA abundance in […] (PMA)-treated THP1 cells after treatment with cathelicidin peptides (3 μM) for 10 minutes, then stimulated with U1 RNA (12.5 μg/mL) overnight. (n = 3). Data presented are from one representative experiment of at least two independent experiments. […]

LLGDFFRKSKEKIGKEFKRIVQRIKDFLRNLVPR [LL34]
minimal bacteriocidal concentration (MBC) (6 h): ca. 5 uM
antimicrobial activity against group A Streptococcus (GAS) (GAS incubated with peptide 0–25 μM for 6 hours, surviving colonies counted, Fig. 1d): increased antimicrobial activity compared to LL37
